“Also recorded” adds a separate entry of the source.
What was measured:
[1] = tested on: normal immortalised pancreatic cell line (HPDE); test: SRB cytotoxicity assay, normal HPDE cells; type: cell-based; conditions: normal immortalized HPDE cell line
Protocol: (§1) The SRB colorimetric assay was employed to assess the synthesized compounds’ cytotoxic effects on several cancer cell lines (Table 1)[11–14]. […] Furthermore, the effect of tested compounds was evaluated on the normal immortalized HPDE cell line.
(§2) Sulforhodamine B (SRB) assay was employed to assay in-vitro antitumor activities of all the synthesised compounds as describer previously. […] The cell lines were obtained from the American Type Culture Collection (Rockville, USA).

[2] = tested on: Bax; test: Bax ELISA in MCF-7; type: cell-based, human; conditions: ½ IC50, IC50, 2×IC50, dose dependent
Protocol: (§3) The apoptotic effect of compound 7f on breast cancer cell line MCF-7 were evaluated by quantification of Bax, caspase 3/7, and Bcl-2 using Bax ELISA Kit ab199080 (ABCAM, Cambridge, UK), Caspase-Glo 3/7 assay kits (Promega, Fitchburg, MA, USA), and Bcl-2 ELISA Kit ab119506 (ABCAM, Cambridge, UK), according the instructions of manufacturers[11]^,[14]. The cells were treated with compounds 7f (½ IC50, IC50, or 2 ×IC50), and the activities were shown as a percentage change from the untreated control. The experiments were performed in triplicate applying two-way ANOVA test followed by Bonferroni posttest to evaluate the significance (p < 0.05).

[3] = tested on: MCF-7 breast cancer cell line; test: Flow cytometric cell cycle analysis; type: cell-based, human
From the text: Clearly, compound 7f enhanced the accumulation proportion of cells at the pre-G1 phase from 2.19 to 41.36%, and the accumulation percentages in S phase from 31.87 to 46.36%. […] Figure 8).

[4] = tested on: human hepatocellular carcinoma (HepG-2); test: SRB cytotoxicity assay, HepG-2; type: cell-based; conditions: HepG2, HepG-2 cells
Protocol: as §1, §2

[5] = tested on: Bax; test: Western blot of Bax expression in MCF-7; type: cell-based, human
Protocol: (§4) The effect of compound 7f on the expression of DHFR, Casp3, Bax, and Bcl-2 proteins in MCF-7 cancer cells was evaluated by western blotting as previously performed. The cancer cells treated or untreated were collected were harvested and blotted on SDS-polyacrylamide gel and separated by Cleaver electrophoresis unit (Cleaver, UK), transferred onto polyvinylidene fluoride (PVDF) membranes (Millipore, USA) for 30 min using a Semi-dry Electroblotter (Biorad, USA) at 2.5 A and 25 V for 30 min. […] After washing, the chemiluminescent Western ECL substrate (Perkin Elmer, Waltham, MA, USA) was applied to the blot and then incubated for 1 min with a mixture of equal volumes from ECL solution A and ECL solution B. The chemiluminescent signals were captured using a CCD camera-based imager (Chemi Doc imager, Biorad, USA), and the bands intensities were then measured by Image J software program. […] For colorimetric assays two-way ANOVA test followed by Bonferroni posttest were used, while for quantification expression on western blot, student-t-test was used (significance p < 0.05). […]
(§5) Sodium dodecyl sulfate polyacrylamide gel electrophoresis (SDS-PAGE) is used to separate proteins based on their size. […] The secondary antibody is typically linked to an enzyme that produces luminescence upon the reaction with its substrate. […]

[6] = tested on: Bcl-2; test: Bcl-2 ELISA in MCF-7; type: cell-based, human; conditions: dose-dependent
Protocol: as §3

[7] = tested on: mammary gland breast cancer (MCF-7); test: SRB cytotoxicity assay, MCF-7; type: cell-based; conditions: Homo sapiens, MCF7, MCF-7 cells
Protocol: as §1, §2

[8] = tested on: cervical carcinoma (HeLa); test: SRB cytotoxicity assay, HeLa; type: cell-based; conditions: Homo sapiens, HeLa cells
[9] = tested on: pancreatic human cancer cell lines (BxPC-3); test: SRB cytotoxicity assay, BxPC-3; type: cell-based; conditions: BxPC-3 cells
Protocol: as §1, §2

[10] = tested on: colorectal carcinoma (HCT-116); test: SRB cytotoxicity assay, HCT-116; type: cell-based; conditions: Homo sapiens, HCT-116 cells
Protocol: as §1, §2

[11] = tested on: human prostate cancer (PC-3); test: SRB cytotoxicity assay, PC-3; type: cell-based; conditions: PC-3 cells
Protocol: as §1, §2

[12] = tested on: DHFR; test: Western blot of DHFR expression in MCF-7; type: cell-based, human
Protocol: as §4, §5

N=C(N)NCCCC(NC(=O)c1ccc(Nc2ncnc3c2cnn3-c2ccccc2)cc1)C(=O)O (stereo not drawn) [Compound 7f, 5-Guanidino-2-{4-[(1-phenyl-1H-pyrazolo[3,4-d]pyrimidin-4-yl)amino]benzamido}pentanoic acid]
IC50 [1]: > 50 µM
release of Bax protein [2]: significantly surge the release
Comment (cell cycle arrest) ([3]; MCF-7 cells): arrested cell cycle at S phase; also recorded: Cell growth arrest at S
%Pre-G1 ([3]; MCF-7 cells treated with the compound, control 2.19): 41.36%
%G2/M ([3]; MCF-7 cells treated with the compound, control 12.01): 1.5%
%S ([3]; MCF-7 cells treated with the compound, control 31.87): 46.39%
%G0-G1 ([3]; MCF-7 cells treated with the compound, control 56.12): 52.11%
IC50 [4]: 5.12 ± 0.01 µM
western blotting OD Bax ([5]; MCF7 cells, Cont.MCF7 0.152): 0.346 OD
expression of Bax (western blot) ([5]; MCF-7): significantly increased the expression
Bcl-2 production (ELISA) [6]: significantly reduced the Bcl-2 production
IC50 [7]: 4.65 ± 0.17 µM
IC50 [8]: 6.99 ± 1.11 µM
IC50 [9]: 7.09 ± 0.09 µM
IC50 [10]: 5.48 ± 0.04 µM
IC50 [11]: 6.29 ± 0.56 µM
western blotting OD DHFR ([12]; MCF7 cells, Cont.MCF7 0.808): 0.346 OD
DHFR expression (western blot) ([12]; MCF-7 cancer cell line): significantly diminished the DHFR expression
